The values below come from US11028095B2, “Spiro-lactam and bis-spiro-lactam NMDA receptor modulators and uses thereof” (Aptinyx Inc., priority 2016, dated 2021).

The nature of one data set: IV pharmacokinetics. Conditions: Sprague Dawley rats, 2 mg/kg, normal saline; for Vd: read-out: Vss. The arrangement: C0: unit: ng/mL. It is filed as in vivo. On the procedure: Sprague Dawley rats were dosed intravenously using a normal saline formulation containing 2 mg/kg of the compounds identified in the below table. The table below summarizes the results of the IV pharmacokinetics.

Data set [1] in a line: Microsomal stability (Rat). Type of data set: in vitro ADME. Conditions: rat microsomes. On the procedure:
(§1) Microsomal stability of disclosed compounds was investigated. The following table indicates the percent of compound remaining after 60 minutes.

Data set [2] is described as follows: Microsomal stability (Human). Type of data set: in vitro ADME. Conditions: human microsomes. On the procedure: as §1
Data set [3] addresses T1, NMDAR2A expressing HEK cell membranes (Homo sapiens, UniProt Q12879).
T1 construct: expressed in transfected cells; host or cells: HEK cells (membrane extract)
Nature of the data set: NMDAR agonist assay, [3H]MK-801 binding, NMDAR2A. It is filed as biochemical. Conditions: 50 μM glutamate. On the procedure:
(§2) (nonequilibrium conditions).
(§3) The baseline value was determined from the best fit curve of the DPM values modeled using the GraphPad program and the log(agonist) vs. response(three parameters) algorithm was then subtracted from all points in the dataset.

A further data set is described as follows: Plasma stability (Human). It is filed as in vitro ADME. On the procedure: (§4) Plasma stability of disclosed compounds was investigated. The following table indicates the percent of compound remaining after 60 minutes.
A further data set is described as follows: Plasma stability (Rat). It is filed as in vitro ADME. On the procedure: as §4
Data set [4] addresses T2, NMDAR2B expressing HEK cell membranes (Homo sapiens, UniProt Q13224).
T2 construct: expressed in transfected cells; host or cells: HEK cells (membrane extract)
Nature of the data set: NMDAR agonist assay, [3H]MK-801 binding, NMDAR2B. Conditions: 50 μM glutamate. Type of data set: biochemical. On the procedure:
as §2, §3

The nature of data set [5]: Oral pharmacokinetics (plasma, brain, CSF). Type of data set: in vivo. The arrangement: Cmax: unit: ng/mL. Conditions: Sprague Dawley rats, per os, 10 mg/kg; for Tmax: normal saline. On the procedure:
In another experiment, Sprague Dawley rats were dosed per os using a normal saline formulation containing 10 mg/kg of the compounds identified in the table below. Plasma, brain, and CSF samples were analyzed at various time points over a 24 hour period. The table below summarizes the results of the oral pharmacokinetics.

Data set [6] concerns positive (hedonic) 50-kHz ultrasonic vocalizations (USVs). The experiment in a line: Positive Emotional Learning (PEL) test. It is filed as in vivo. Conditions: rat, PO, dose 0.1 mg/kg, one hour after administration. Here is the method:
Experiments were conducted as described in Burgdorf et al., “The effect of selective breeding for differential rates of 50-kHz ultrasonic vocalizations on emotional behavior in rats,” Devel. […] Rat 50-kHz ultrasonic vocalization (hedonic USVs) is a validated model for the study of positive affective state and is best elicited by rough-and-tumble play.
The PEL assay measures the acquisition of positive (hedonic) 50-kHz ultrasonic vocalizations (USVs) to a social stimulus, heterospecific rough and tumble play stimulation. Heterospecific rough-and-tumble play stimulation was administered by the experimenter's right hand. One hour after administration of test compound or vehicle negative control (0.5% sodium carboxymethyl cellulose in 0.9% sterile saline vehicle), animals received 3 min of heterospecific rough-and-tumble play that consisted of alternating 15 sec blocks of heterospecific play and 15 sec of no-stimulation. […] Frequency modulated 50-kHz USVs that occurred during each of the no-stimulation periods were quantified to measure PEL. Animals were not habituated to play stimulation before testing. Positive emotional learning was measured during the conditioned stimulus (CS) trials preceding the tickle unconditioned stimulus (UCS) trials. Animals received 15 second trials consisting of 6 CS and 6 UCS trials each (3 min total).

Data set [7] addresses T3, NMDAR2A expressing HEK cell membranes (Homo sapiens, UniProt Q05586+Q12879).
T3 construct: expressed in transfected cells; host or cells: HEK cells (membrane extract)
The experiment in a line: NMDAR agonist assay, [3H]MK-801 binding, NMDAR2A. Conditions: 50 μM glutamate; for EC50: [3H]MK-801 binding, read-out: NMDAR2A: log EC50 (converted). Type of data set: biochemical. Here is the method:
as §2, §3

Data set [8] has as its target T4, NMDAR2B expressing HEK cell membranes (Homo sapiens, UniProt Q05586+Q13224).
T4 construct: expressed in transfected cells; host or cells: HEK cells (membrane extract)
Nature of the data set: NMDAR agonist assay, [3H]MK-801 binding, NMDAR2B. It is filed as biochemical. Conditions: 50 μM glutamate; for EC50: [3H]MK-801 binding, read-out: NMDAR2B log EC50 (converted). On the procedure:
as §2, §3

The mark [9] stands for this setting: Sprague Dawley, rat, in vivo, iv.
Where [10] appears, read: Sprague Dawley, rat, in vivo, iv, read-out: C0.
Where [11] appears, read: Sprague Dawley, rat, plasma, po.
Setting [12] is: Sprague Dawley, rat, plasma, po, read-out: Tmax.
[13] abbreviates: Sprague Dawley, rat, plasma, po, plasma, read-out: Cmax.

Like-named read-outs stand apart in the source and are kept apart here.

T3 sequence (Q12879 23-1464, other chains not shown): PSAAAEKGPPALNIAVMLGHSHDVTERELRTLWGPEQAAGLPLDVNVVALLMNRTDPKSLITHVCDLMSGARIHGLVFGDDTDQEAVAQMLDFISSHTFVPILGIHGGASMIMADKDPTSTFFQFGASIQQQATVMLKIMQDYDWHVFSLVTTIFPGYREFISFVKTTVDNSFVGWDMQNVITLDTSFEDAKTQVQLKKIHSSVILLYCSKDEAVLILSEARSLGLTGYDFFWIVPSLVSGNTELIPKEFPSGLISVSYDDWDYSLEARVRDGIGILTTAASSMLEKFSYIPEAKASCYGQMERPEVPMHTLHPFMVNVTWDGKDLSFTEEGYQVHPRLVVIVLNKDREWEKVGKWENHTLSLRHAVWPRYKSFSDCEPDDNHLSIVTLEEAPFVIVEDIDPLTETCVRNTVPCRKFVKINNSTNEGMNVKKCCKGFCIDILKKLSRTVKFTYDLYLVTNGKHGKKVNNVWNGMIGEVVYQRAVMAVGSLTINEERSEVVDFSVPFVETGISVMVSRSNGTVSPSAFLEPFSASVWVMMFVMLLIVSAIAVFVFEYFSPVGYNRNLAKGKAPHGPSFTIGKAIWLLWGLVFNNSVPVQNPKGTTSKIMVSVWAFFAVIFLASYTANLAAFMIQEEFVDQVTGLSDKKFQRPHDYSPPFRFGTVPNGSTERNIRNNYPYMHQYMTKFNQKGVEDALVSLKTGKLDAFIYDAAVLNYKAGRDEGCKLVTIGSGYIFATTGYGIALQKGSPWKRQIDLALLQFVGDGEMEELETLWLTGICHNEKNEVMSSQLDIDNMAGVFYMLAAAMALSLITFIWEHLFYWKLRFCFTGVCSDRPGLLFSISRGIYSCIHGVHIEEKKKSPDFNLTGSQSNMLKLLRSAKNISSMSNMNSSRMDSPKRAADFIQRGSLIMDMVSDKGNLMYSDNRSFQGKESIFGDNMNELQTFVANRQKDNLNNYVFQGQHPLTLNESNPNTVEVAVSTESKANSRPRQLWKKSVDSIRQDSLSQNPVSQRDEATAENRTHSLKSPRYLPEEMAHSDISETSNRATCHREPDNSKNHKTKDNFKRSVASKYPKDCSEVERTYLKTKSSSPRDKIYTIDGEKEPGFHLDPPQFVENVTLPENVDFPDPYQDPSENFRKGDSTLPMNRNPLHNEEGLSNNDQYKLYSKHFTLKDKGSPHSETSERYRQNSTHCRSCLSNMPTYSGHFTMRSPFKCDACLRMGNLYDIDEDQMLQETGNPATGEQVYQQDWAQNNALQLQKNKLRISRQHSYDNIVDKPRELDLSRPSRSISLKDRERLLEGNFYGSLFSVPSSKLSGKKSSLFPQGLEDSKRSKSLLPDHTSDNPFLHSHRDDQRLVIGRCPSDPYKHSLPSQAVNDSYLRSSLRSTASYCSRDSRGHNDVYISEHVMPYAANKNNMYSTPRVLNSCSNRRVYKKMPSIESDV
T1 sequence (Q12879 23-1464, other chains not shown): as above
T4 sequence (Q13224 27-1484, other chains not shown): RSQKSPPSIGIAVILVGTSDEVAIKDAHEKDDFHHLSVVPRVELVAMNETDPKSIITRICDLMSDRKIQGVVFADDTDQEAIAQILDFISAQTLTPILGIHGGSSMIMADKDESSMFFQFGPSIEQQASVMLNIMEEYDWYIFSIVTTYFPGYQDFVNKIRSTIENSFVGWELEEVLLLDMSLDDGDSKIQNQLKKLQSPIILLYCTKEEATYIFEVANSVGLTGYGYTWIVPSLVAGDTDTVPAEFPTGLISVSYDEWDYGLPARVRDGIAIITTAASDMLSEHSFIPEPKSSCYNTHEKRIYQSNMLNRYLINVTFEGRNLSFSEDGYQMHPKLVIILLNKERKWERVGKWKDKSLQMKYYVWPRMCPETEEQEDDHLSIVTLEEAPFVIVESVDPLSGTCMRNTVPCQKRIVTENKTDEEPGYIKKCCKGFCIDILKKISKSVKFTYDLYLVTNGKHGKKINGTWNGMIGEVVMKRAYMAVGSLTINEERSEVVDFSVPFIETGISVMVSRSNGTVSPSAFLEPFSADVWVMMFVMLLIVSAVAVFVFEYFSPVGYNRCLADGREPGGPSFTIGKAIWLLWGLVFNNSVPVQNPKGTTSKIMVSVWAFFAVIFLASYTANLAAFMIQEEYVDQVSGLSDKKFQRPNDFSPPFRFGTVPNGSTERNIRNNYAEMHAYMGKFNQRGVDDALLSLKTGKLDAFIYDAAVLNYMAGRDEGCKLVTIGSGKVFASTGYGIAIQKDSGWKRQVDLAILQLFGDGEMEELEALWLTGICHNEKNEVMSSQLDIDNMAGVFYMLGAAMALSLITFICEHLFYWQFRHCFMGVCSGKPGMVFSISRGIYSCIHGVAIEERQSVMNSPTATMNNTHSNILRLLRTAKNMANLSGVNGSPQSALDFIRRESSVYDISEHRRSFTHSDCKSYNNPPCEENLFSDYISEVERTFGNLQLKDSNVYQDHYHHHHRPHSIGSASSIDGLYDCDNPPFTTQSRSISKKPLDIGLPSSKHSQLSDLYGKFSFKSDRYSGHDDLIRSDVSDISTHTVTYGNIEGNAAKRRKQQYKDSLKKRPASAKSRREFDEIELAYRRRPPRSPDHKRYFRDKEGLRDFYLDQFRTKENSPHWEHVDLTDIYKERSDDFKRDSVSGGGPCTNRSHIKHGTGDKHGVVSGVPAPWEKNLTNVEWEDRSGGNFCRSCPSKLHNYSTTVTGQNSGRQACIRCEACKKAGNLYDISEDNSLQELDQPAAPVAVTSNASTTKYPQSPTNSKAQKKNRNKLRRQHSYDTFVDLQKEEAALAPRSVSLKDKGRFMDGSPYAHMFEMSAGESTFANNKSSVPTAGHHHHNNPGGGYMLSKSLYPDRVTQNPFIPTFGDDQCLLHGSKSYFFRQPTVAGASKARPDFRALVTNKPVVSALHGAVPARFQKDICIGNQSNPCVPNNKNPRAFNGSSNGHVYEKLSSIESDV

By Vss is commonly meant the apparent volume that relates the amount in the body to the concentration in plasma or blood. For orientation: EC50 means the concentration that produces a half-maximal response. The term Tmax denotes the time at which the peak concentration occurs. As usually defined, the Cmax is the maximum level reached in the sampled fluid or tissue. For the compound `C[C@@H](O)[C@H](NC(=O)C1CCC2(CNC2=O)N1)C(N)=O` (single isomer, unassigned) [AQ-2], in “IV pharmacokinetics”, the AUClast is 2601.7 ng·h/mL, the C0 is 5143.2 ng/mL, the Cl worked out at 12.82 mL/min/kg and the T1/2 stood at 0.59 h. Besides, the volume of distribution (Vss) in the data set “IV pharmacokinetics” turned out to be 0.36 L/kg. Moreover, the “Microsomal (Rat): percent of compound remaining after 60 minutes” value in data set [1] was determined as 100%. Besides, the “Microsomal (Human): percent of compound remaining after 60 minutes” value in data set [2] was 100%. Besides, the EC50 in data set [3] ([3H]MK-801 binding, read-out: NMDAR2A: log EC50 (converted)) was < 1 nM. For the same compound, the “NMDAR2A: % maximal [3H]MK-801 binding relative to 1 mM glycine” value in [3] is given as “+ (<100%=+)”. Also, the “Plasma (Human): percent of compound remaining after 60 minutes” value in “Plasma stability (Human)” was found to be 100%. For the same compound, the “Plasma (Rat): percent of compound remaining after 60 minutes” value in the data set “Plasma stability (Rat)” amounted to 95%. Also, the EC50 in data set [4] ([3H]MK-801 binding, read-out: NMDAR2B log EC50 (converted)) was < 1 nM. Also, in data set [4], the “NMDAR2B: % maximal [3H]MK-801 binding relative to 1 mM glycine” value is listed as “+ (<100%=+)”. Besides, in data set [5], the “% F” value amounted to 5%, the AUClast worked out at 599.6 ng·h/mL, the “CSF Cmax” value is 0 ng/mL and the “Brain Cmax” value is 0 ng/mL. In data set [5], the time of peak concentration (Tmax) was 1.08 h. In addition, the Cmax in [5] (plasma) is 144.2 ng/mL. Further, in data set [6] (0.1 mg/kg), the “Max Effect (mean number of 50 kHz USVs per 15 seconds)” value is “* (*: 6-10.9)”.

In general, AUC(0-t) refers to the area under the concentration-time curve up to a stated or last time point. In general, clearance refers to the volume of plasma or blood freed of the substance per unit of time. As usually defined, the half-life is the time in which the quantity being followed falls by half. As usually defined, the bioavailability is the share of a dose that reaches the circulation, judged against a reference dose that is usually intravenous. For `CC(C)C(=O)N1C(C(=O)N[C@H](C(N)=O)[C@@H](C)O)CCC12CNC2=O` (single isomer, unassigned) [AS], in “IV pharmacokinetics” (setting [9]), the AUC(0-t) worked out at 2800 ng·h/mL, the clearance stood at 11.8 mL/min/kg, the half-life is 3.17 h and the Vd stood at 0.61 L/kg. In the data set “IV pharmacokinetics” (setting [10]), the C0 was 2230 ng/mL. In addition, the “Microsomal (Rat): percent of compound remaining after 60 minutes” value in data set [1] was 100%. For the same compound, the “Microsomal (Human): percent of compound remaining after 60 minutes” value in data set [2] is given as 84%. Further, in [3], the “NMDAR2A: % maximal [3H]MK-801 binding relative to 1 mM glycine” value is “+ (<100%=+)”. For the same compound, in [7], the EC50 is < 1 nM. For the same compound, in “Plasma stability (Human)”, the “Plasma (Human): percent of compound remaining after 60 minutes” value was found to be 100%. Also, the “Plasma (Rat): percent of compound remaining after 60 minutes” value in “Plasma stability (Rat)” worked out at 100%. Further, in [4], the “NMDAR2B: % maximal [3H]MK-801 binding relative to 1 mM glycine” value is given as “+ (<100%=+)”. Further, in data set [8], the EC50 is < 1 nM. Further, in data set [5], the “CSF Cmax” value was determined as 0 ng/mL and the “Brain Cmax” value came to 0 ng/mL. Moreover, in data set [5] (setting [11]), the AUC(0-t) worked out at 367 ng·h/mL and the bioavailability was determined as 3%. In addition, in data set [5] (setting [12]), the Tmax came out at 0.83 h. Also, the Cmax in data set [5] (setting [13]) worked out at 75.4 ng/mL. Besides, the “Max Effect (mean number of 50 kHz USVs per 15 seconds)” value in data set [6] is reported as “** (**: 11-16.9)”.

Turning to `CC(=O)N1C(C(=O)N[C@H](C(N)=O)[C@@H](C)O)CCC12CNC2=O` (stereo partly drawn) [AO, 5-acetyl-N-((2S,3R)-1-amino-3-hydroxy-1-oxobutan-2-yl)-1-oxo-2,5-diazaspiro[3.4]octane-6-carboxamide], in the data set “IV pharmacokinetics” (setting [9]), the exposure AUC(0-t) is 4430 ng·h/mL, the clearance is 7.59 mL/min/kg, the half-life was 2.17 h and the Vd was 0.22 L/kg. In “IV pharmacokinetics” (setting [10]), the C0 is 11900 ng/mL. For the same compound, the “Microsomal (Rat): percent of compound remaining after 60 minutes” value in data set [1] amounted to 100%. Besides, the “Microsomal (Human): percent of compound remaining after 60 minutes” value in data set [2] is 100%. For the same compound, the concentration giving a half-maximal response (EC50) in data set [7] was > 100 nM. Further, in data set [7] (relative to 1 mM glycine, read-out: NMDAR2A: % maximal [3H]MK-801 binding relative to 1 mM glycine), the Emax is 0%. In addition, the “Plasma (Human): percent of compound remaining after 60 minutes” value in “Plasma stability (Human)” is 100%. For the same compound, in “Plasma stability (Rat)”, the “Plasma (Rat): percent of compound remaining after 60 minutes” value is given as 93%. For the same compound, in [8], the concentration for a half-maximal effect (EC50) is < 1 nM. In data set [8] (relative to 1 mM glycine, read-out: NMDAR2B: % maximal [3H]MK-801 binding relative to 1 mM glycine), the Emax is < 100%. Moreover, in data set [5], the “CSF Cmax” value worked out at 17.89 ng/mL and the “Brain Cmax” value turned out to be 0 ng/mL. In data set [5] (setting [11]), this compound had an exposure AUC(0-t) of 1320 ng·h/mL and a bioavailability of 6%. Besides, the Tmax in [5] (setting [12]) was 2.67 h. Moreover, the maximum concentration (Cmax) in data set [5] (setting [13]) amounted to 247 ng/mL. Moreover, in [6], the “Max Effect (mean number of 50 kHz USVs per 15 seconds)” value is reported as “** (**: 11-16.9)”.
